“Also recorded” adds a separate entry of the source.
Key:
Type in all cases: in vivo, mouse
LPA1 receptor = assay: Mechanical stimulus-induced pain test (digitized von Frey) in SART (ICS) stress mice given LPA1 AS-ODN/MS-ODN i.c.v.
Procedure: Exposure to SART (ICS) stress was achieved by repeatedly altering extremely different rearing environmental temperatures. Temperature settings were established at room temperature (24° C.) and cold temperature (4° C.). Rearing cages were placed in environments set at the respective temperatures; the animals were reared, with transfer of the mice only every 30 minutes in the daytime (from 10:00 to 16:30), and at the cold temperature in the nighttime (from 16:30 to 10:00 on the following day). This repeated stress was given for 3 days from 16:30 on the day before stress loading to 10:00 on day 3 of stress loading. A solid food and agar for water supply were always kept in the cage during the above-described stress loading period, to maintain an environment allowing the animals to have free access thereto.
A hypersensitive response induction experiment with ICS stress was applied to mice previously dosed with an antisense oligodeoxynucleotide that complementarily binds to the lysophosphatidic acid (hereinafter, denoted as LPA) receptor gene to inhibit the expression thereof (hereinafter, denoted as AS-ODN) as an animal model of generalized pain disease, and the stress exposure of Production Example 1 was performed.
Ten to twelve C57BL/6J mice at 6 weeks of age (20 to 22 g) were used in a normal control group and an ICS stress loading group.
Using “5′-[…]-3′ (SEQ ID NO:5)” as AS-ODN, BLAST search was performed; it was confirmed that the sequence thereof was specific for the LPA1 receptor. For comparative control, mice dosed with a missense oligodeoxynucleotide having a noncomplementary sequence (hereinafter, denoted as MS-ODN) and mice dosed with artificial cerebro-spinal fluid (ACSF) as Vehicle were used. Using “5′-[…]-3′ (SEQ ID NO:6)” as MS-ODN, BLAST search was performed; it was confirmed that the sequence thereof was not similar to other receptors.
SART (ICS) stress based on Production Example 1 above was loaded on the mice after being given ODN and ACSF, after which pain threshold values were measured, and changes over days were examined.
In Example 3, chronic pains were evaluated on mice loaded with stress based on Production Example and Examples. Regarding how to evaluate chronic pains, pain threshold values were evaluated over days by a mechanical stimulus-induced pain test. The mechanical stimulus-induced pain test was performed according to the digitized von Frey method.
AS-ODN was given by intracerebroventricular administration at 10 μg once daily, starting five days before SART (ICS) stress loading. After pretreatment for 5 consecutive days, SART (ICS) stress was started, and intracerebroventricular administration was performed once a day even during the stress loading period. However, there was no administration on day 3 of stress loading, after which administration was discontinued; a total of 7 administrations were performed. The single-dose volume was 5 μl.
In the same way as the above-described method of treatment, MS-ODN and Vehicle were administered 7 times in total before stress loading and during the stress loading period.
On mice acclimated to the environment on a 5 mm×5 mm-mesh net (adaptation-applied), a custom-made plastic chip was applied to a planta of each mouse under a constant pressure from below. At that time, responding weight threshold values were measured digitally.

LPA2 receptor = assay: Mechanical stimulus-induced pain test (digitized von Frey) in SART (ICS) stress mice given LPA2 AS-ODN/MS-ODN i.c.v.
ATX = assay: Mechanical nociception test (automated digitized von Frey) in ICS stress mice given ATX-AS/ATX-MS i.c.v.; conditions: P1 to P12 after ICS stress; 10 μg/5 μl i.c.v.
Procedure: ATX-antisense is a drug that suppresses the synthesis of the mRNA of ATX, an LPA synthetase. The ATX-antisense (ATX-AS) used was designed to have the base sequence: “5′-GTCTTGCCATGCCGAGGGAT-3′ (SEQ ID NO:13)”, and the ATX-missense (ATX-MS) used was designed to have the base sequence: “5′-GTTCTCGCAGTCGCAGGAGT-3′ (SEQ ID NO:14)”. The dosage was 10 μg/5 μl both for the antisense and for the missense.
ATX-antisense (operon, 3170003) was given by intracerebroventricular administration on consecutive days starting five days previously, including days of stress loading (FIG. 8A). Doses were given in solution in artificial cerebro-spinal fluid. For control groups, the same amounts of ATX-missense (operon, 3170004) and the solvent were administered, respectively. […]
(§1) Prior to the experiment, each mouse was placed on a rack on a mesh and covered with a cage from above, and the animal was acclimated to the same environment as the experiment for not less than 1 hour. The tip of a plastic chip was pressed vertically against the center of a hind paw of the mouse from below the rack; when the mouse behaved to withdraw the hind leg, the automatically measured value was read. […]
(§2) With the day of completion of ICS loading as P1, pain threshold values were measured on P3, P5, P12 and P19.

PLA2 [1] = assay: Mechanical nociception test (automated digitized von Frey) in ICS stress mice given BEL i.c.v.; conditions: between P1 and P5, significant change at P3, two doses
Procedure: (§3) As a PLA2 inhibitor, Bromoenol lactone (Cayman chemical) was used. Drug administration was performed twice in total at 10 a.m. before performing repeated cold stimulation in stress loading (FIG. 9A).
(§4) The whole amount of 5 mg of the drug was dissolved in 200 μl of DMSO and dispensed at 20 nmol/10 μl. 384 μl of artificial cerebro-spinal fluid was added thereto. For a control group, the same amounts of DMSO and artificial cerebro-spinal fluid were mixed and administered. Using a 50 μl Hamilton microsyringe and a needle-equipped cannula, a total volume of 5 μl was given by intracerebroventricular administration. A 26-gauge needle for intracerebroventricular administration was used.
(§5) To create a mouse model of fibromyalgia, ICS (Intermittent Cold Stress) was loaded. […]
as §1, §2

PLA2 [2] = assay: Thermal nociception test (Hargreaves) in ICS stress mice given BEL i.c.v.; conditions: between P1 and P5, significant change at P3, two doses
Procedure: as §3, §4, §5
Prior to the experiment, each mouse was placed on a glass plate and covered with a cage from above, and the animal was acclimated to the same environment as the experiment for not less than 1 hour. A thermal stimulus was given to a hind paw of the mouse; when the mouse behaved to escape the stimulus, the automatically measured value was read. […]
as §2

[3] = SART (ICS) stress loading group
[4] = SART (ICS) stress loading group, day 1 of stress loading, 10 μg i.c.v. once daily
[5] = SART (ICS) stress loading group, day before stress loading, 10 μg i.c.v. once daily
[6] = treated normal control group (no stress), day 1 of stress loading
[7] = SART (ICS) stress loading group, pretreated i.c.v.

| Molecule | pain threshold value (PWT) (LPA1 receptor; [4]) | pain threshold value (PWT) (LPA1 receptor; [5]) | persistence of hypersensitive response (LPA2 receptor; [3]) | pain threshold value (PWT) (LPA2 receptor; [4]) | pain threshold value (PWT) (LPA2 receptor; [5]) | also measured |
| --- | --- | --- | --- | --- | --- | --- |
| 5′-CGATACACTAGAACGCTCGA-3′ (DNA, backbone and methylation of C not given here) [MS-ODN] | 5.68 ± 0.7 g | 9.59 ± 0.3 g | at least 19 days | 5.79 ± 0.1 g | 9.58 ± 0.3 g | persistence of hypersensitive response (LPA1 receptor; [3]): at least 19 days; pain threshold value (PWT) (LPA1 receptor; [6]): 9.49 ± 0.2 g; pain threshold value (PWT) (LPA2 receptor; [6]): 9.65 ± 0.3 g |
| 5′-GTTCTCGCAGTCGCAGGAGT-3′ (DNA GTTCTCGCAGTCGCAGGAGT; listed as DNA, chemistry not given here) [ATX-MS, ATX missense control oligonucleotide] |  |  |  |  |  | mechanical nociceptive response threshold values after ICS stress loading (ATX): significant reductions |
| O=C1O/C(=C/Br)CCC1c1cccc2ccccc12 (stereo not shown) [BEL, Bromoenol lactone] |  |  |  |  |  | reductions of mechanical nociceptive response threshold values due to ICS stress (PLA2 [1]): tended to be suppressed; thermal hyperalgesia due to ICS stress (PLA2 [2]): tended to be suppressed |
| 5′-TACTACAACGAGACCATCGG-3′ (DNA, backbone and methylation of C not given here) [LPA2 AS-ODN] |  |  | at least 19 days | 6.43 ± 0.1 g | 9.77 ± 0.5 g | suppression of SART (ICS) stress-induced pains (LPA2 receptor; [7]): no suppression |
| 5′-AGCTGCCATGACAGTGCTGT-3′ (DNA, backbone and methylation of C not given here) [LPA1 AS-ODN] | 8.76 ± 0.5 g | 9.77 ± 0.4 g |  |  |  | hypersensitive response / chronic pain after SART (ICS) stress, measured over days (LPA1 receptor; [7]): no hypersensitive responses were noted; also recorded: suppressed; threshold values of treated normal control group versus Vehicle and LPA1 MS-ODN groups (LPA1 receptor; normal control group (no stress)): comparable |
